Measured values: PMC7551400, “Moderate Wine Consumption Reduces Faecal Water Cytotoxicity in Healthy Volunteers” (Nutrients, 2020)
Read-outs that look alike come from different tables or passages of the source.

Legend:
HT-29 cells [1] = conditions: cited from earlier work
HCT 116 cells = assay: MTT cytotoxicity assay, reference compounds; assay type: cell-based; conditions: Homo sapiens, read-out: Toxicity (IC50 value)
Description: (§1) Two human colon adenocarcinoma cell lines, HT-29 (ATCC® HTB-38TM) and […]), were used to evaluate cell cytotoxicity. […] Biowest Europe, Nuaillé, France). […] Cells were grown in 75 cm^2 flasks (Corning Flask, Corning, NY, USA) at 37 °C and in a 5% CO2 atmosphere and the media were renewed every 3 days. […] Cells were seeded at a density of 3.6 × 10^5 cells/mL on well plates, and washed with warm DPBS. […] After that, supernatants were removed from the wells, and MTT (Sigma-Aldrich, St. Louis, MO, USA) solution (0.5 mg/mL) was added (100 μL/well). The plates were immediately incubated for 3 h in darkness. After this time, MTT reagent was aspirated and formazan crystals were diluted in 100 μL of dimethyl sulfoxide (DMSO; Sigma-Aldrich, St. Louis, MO, USA). Absorbance at 570 nm was measured on a Multiskan plate reader (Thermo Scientific, Newington, NH, USA). Cell viability (%) was calculated as Abssample/Abscontrol × 100. Assays were performed in triplicate and three independent experiments were carried out.

HT-29 cells [2] = assay: MTT cytotoxicity assay, reference compounds; assay type: cell-based; conditions: Homo sapiens, read-out: Toxicity (IC50 value)
Description: as §1

Caco 2 cells = system: Caco 2 cells; set-up: method as in PMID 30359553; conditions: 24 h of incubation; cited from earlier work
HT-29 Glc–/þ cell line = system: HT-29 Glc–/þ cell line; set-up: method as in PMID 25881551; conditions: 24 h incubation; cited from earlier work

| SMILES | Concentration at which compound became cytotoxic (HT-29 cells [1]) | IC50 (HCT 116 cells; HCT-116, 4 h) | IC50 (HCT 116 cells; HCT-116, 24 h) | IC50 (HT-29 cells [2]; HT-29, 4 h) | IC50 (HT-29 cells [2]; HT-29, 24 h) | Concentration from which a cytotoxic effect was exerted (Caco 2 cells) | Concentration from which a cytotoxic effect was exerted (HT-29 cells [1]; 24 h of incubation) | IC50 (HCT 116 cells; HCT 116, 4 h incubation, MTT) | IC50 (HCT 116 cells; HCT 116, 24 h incubation, MTT) | IC50 (HT-29 cells [2]; HT-29, 4 h incubation, MTT) | IC50 (HT-29 cells [2]; HT-29, 24 h incubation, MTT) | Concentration with cytotoxicity effects (HT-29 Glc–/þ cell line) |
| --- | --- | --- | --- | --- | --- | --- | --- | --- | --- | --- | --- | --- |
| Oc1ccccc1 [Phenol] | 1250 µM | 23.8 mM | 11.4 mM | 15.8 mM | 6.16 mM | – | – | – | – | – | – | – |
| Cc1ccc(O)cc1 [p-Cresol, p-cresol] | – | – | – | – | – | ≥ 3000 µM | ≥ 3000 µM | 5.64 mM | 4.16 mM | 5.4 mM | 2.13 mM | 800 µM |
